Measurements from patent publication US20120277211A1, “METHODS AND COMPOSITIONS FOR THE TREATMENT OF PSYCHOTIC DISORDERS THROUGH THE IDENTIFICATION OF THE SULT4A1-1 HAPLOTYPE” (priority 2009, published 2012).
Where two headings read alike, the source gives them in different places. Marks after values point to notes of the source that are not given here.

What was measured:
[1] = test system: unsegmented patient populations; conditions: cited from earlier work
schizophrenia patients [2] = conditions: Phase II; for Responders: decrease PANSS ≧20%, LOCF
[3] = test system: African American schizophrenia patients; assay: CATIE: change in total PANSS (LOCF) by SULT4A1-1 haplotype status, African Americans; type: in vivo, human; conditions: for Number of individuals with change in total PANSS ≦−20% (responders) / Number of individuals with change in total PANSS ≧−20% (non-responders): LOCF
Description: The design of the CATIE study has been described in detail by others (Lieberman et al., 2005; Stroup et al., 2003). […] A total of 738 subjects consented to provide DNA for genetic study. […] Retrospective genetic analyses, judged to be exempt from human studies requirements by an IRB, were conducted in the current study. All tested patients were studied using well established clinical endpoints comparing baseline, intermediate, and last observation carried forward (LOCF) for the PANSS scores using CATIE data. […] To remove time on drug as a variable for the CATIE trial, analysis was limited to only those patients who were randomized to a different drug following the initial washout period (drug switchers).

schizophrenia patients [4] = test system: schizophrenia patients
Description: For the analyses shown in Tables 22-24, SULT4A1-1 haplotype status was assigned as describe in Example 3, and standard statistical survival analysis using Cox's proportional hazards model was used to determine the relative risk (hazard) of discontinuing drug use. The Hazard Ratio (HR) measures the risk of an event (in this case, switching or discontinuation from the drug) relative to patient exposure or status (in this case, SULT4A1-1 positive status).
As describe in Example 11, Hazard Ratio (HR) measures the risk of an event (in this case, switching or discontinuation from the drug) relative to patient exposure or status (in this case, SULT4A1-1 status).

schizophrenia patients [5] = assay: CATIE: months of successful treatment measured by the CGI scale (TMSUCC1); type: in vivo, human
Excerpt: The CATIE clinical data set included Clinical Global Impression (CGI) Scale, an observer-provided assessment of the psychiatric health of the patient (Stroup et al., 2003; Guy 1976). Patients are rated with the CGI Scale from 1 to 7, with higher scores indicating greater severity of illness. The CATIE study provided a response variable that measured the time (in months) of successful treatment as measured by the CGI scale (“TMSUCC1” in the CATIE data).

[6] = test system: Caucasian schizophrenia patients; assay: CATIE: time to discontinuation for all causes by SULT4A1-1 status; type: in vivo, human
Excerpt: The primary endpoint for the CATIE study was time to discontinuation for all causes (Lieberman et al., 2005). Thus the inventors evaluated the effect of SULT41-1 status on this important parameter.

[7] = test system: Caucasian schizophrenia patients; assay: CATIE: hospitalization due to exacerbation of psychosis by SULT4A1-1 status; type: in vivo, human
Excerpt: To assess if SULT4A1-1 status impacts the risk of hospitalization in Caucasians, the inventors assigned SULT4A1-1 status to each CATIE subject and evaluated hospitalization events due to exacerbation of psychosis. For this analysis, the inventors assigned a dichotomous value (positive or negative) for hospitalization status to subjects in each phase of the trial based on only the first hospitalization event for a given patient in that phase. Patients participating in Phases 1, 2, and/or 3 were included in the totals for the appropriate drug.
A Kaplan-Meier survival analysis was performed to determine whether there was a difference between the survival (hospitalization) rates for the SULT4A1-1 negative and SULT4A1-1 positive patient populations treated with each of the atypical antipsychotics. Survival plots model the fraction of the population that survived (i.e., no hospitalization event) as a function of time.

[8] = SULT4A1-1 negative risperidone / SULT4A1-1 negative all other drugs
[9] = Unsegmented risperidone / Unsegmented all other drugs

Cc1nc2n(c(=O)c1CCN1CCC(c3noc4cc(F)ccc34)CC1)CCCC2 [Risperidone]
Effect Size vs. FGA ([1]; first generation antipsychotics, Davis et al. (2003)): −0.25 | Effect Size vs. Placebo ([1]; meta-analysis, Leucht et al. (2009), negative = greater reduction in PANSS): −0.59 | Mean difference in total PANSS score between olanzapine and labelled drug, Meta-analysis ([1]; unsegmented populations, Leucht et al. (2009)): −1.9 | % Responders (schizophrenia patients [2]; SULT4A1-1 Negative): 33.3% | Nonresponders (schizophrenia patients [2]; SULT4A1-1 Negative): 8 | Responders (schizophrenia patients [2]; SULT4A1-1 Negative): 4 | % Responders (schizophrenia patients [2]; SULT4A1-1 Positive): 0% | Nonresponders (schizophrenia patients [2]; SULT4A1-1 Positive): 1 | Responders (schizophrenia patients [2]; SULT4A1-1 Positive): 0 | Number of individuals with change in total PANSS ≦−20% (responders) ([3]; SULT4A1-1 negative): 7 | Number of individuals with change in total PANSS ≧−20% (non-responders) ([3]; SULT4A1-1 negative): 34 | Responders ([3]; SULT4A1-1 positive): 60% | Number of individuals with change in total PANSS ≦−20% (responders) ([3]; SULT4A1-1 positive): 3 | Number of individuals with change in total PANSS ≧−20% (non-responders) ([3]; SULT4A1-1 positive): 2 | HR, all-cause discontinuation (schizophrenia patients [4]; [8]): 0.79^a | HR, discontinuation due to lack of efficacy (schizophrenia patients [4]; [8]): 0.88^a | HR, all-cause discontinuation (schizophrenia patients [4]; SULT4A1-1 positive risperidone / SULT4A1-1 positive all other drugs): 1.48^a | HR, all-cause discontinuation (schizophrenia patients [4]; [9]): 0.91^a | HR, discontinuation due to lack of efficacy (schizophrenia patients [4]; [9]): 1.09^a | Length of successful treatment (CGI Months), Mean (schizophrenia patients [5]; SULT4A1-1 negative): 6.88 Months | Length of successful treatment (CGI Months), Mean (schizophrenia patients [5]; SULT4A1-1 positive): 1.76 Months | Length of successful treatment (CGI Months), Mean (schizophrenia patients [5]; Unsegmented): 5.79 Months | Time to discontinuation, mean ([6]; SULT4A1-1 negative): 11.3 Months | Time to discontinuation, mean ([6]; SULT4A1-1 positive): 8.0*** Months | HOSP, number of patients hospitalized ([7]; SULT4A1-1 negative): 16 | HOSP, rate of hospitalization ([7]; SULT4A1-1 negative): 13% | HOSP, number of patients hospitalized ([7]; SULT4A1-1 positive): 4 | HOSP, rate of hospitalization ([7]; SULT4A1-1 positive): 11.1% | HOSP, rate of hospitalization ([7]; Unsegmented): 12.6% | HOSP, number of patients hospitalized ([7]; Unsegmented, Phases 1, 2 and/or 3, first event): 20 | Kaplan-Meier: difference between survival (no hospitalization) rates of SULT4A1-1 negative and positive patients ([7]; per drug): not statistically significant
